Test results published in patent US7632870B2, “Composition based on substituted 1,3-diphenylprop-2-en-1-one derivatives, preparation and uses thereof” (Genfit, priority 2002, dated 2009).
Each block holds one molecule with its values, some of them ahead of it.

Tests used:
LDL = assay: Protection against LDL oxidation by copper (conjugated diene formation); assay type: biochemical; details: compound at 10^-4M
Description: LDL oxidation is an important alteration and plays a predominant role in the establishment and development of atherosclerosis (Jurgens, Hoff et al. 1987). […] Unless otherwise indicated, the reagents were from Sigma (St Quentin, France).
LDL were prepared according to the method described by Lebeau et al. (Lebeau, Furman et al. 2000).
The solutions of test compounds were prepared at 10^−2 M concentration in bicarbonate buffer (pH 9) and diluted in PBS to obtain final concentrations ranging from 0.1 to 100 μM for a total ethanol concentration of 1% (V/V).
Prior to oxidation, EDTA was removed from the LDL preparation by dialysis. Oxidation then took place at 30° C. by addition of 100 μl of 16.6 μM CuSO4 solution to 160 μL of LDL (125 μg protein/ml) and 20 μl of a test compound solution. The formation of dienes, the species under observation, was followed by measuring optical density at 234 nm in the samples treated with the compounds but in the presence or absence of copper. Optical density at 234 nm was measured every 10 minutes for 8 hours in a thermostated spectrophotometer (Tecan Ultra 380). The analyses were performed in triplicate. The compounds were considered to have antioxidant activity when they induced a longer lag phase and reduced the rate of oxidation and the amount of dienes formed in comparison with the control sample. […] FIGS. 1, 2 and 3 give an example of the results illustrating the antioxidant properties of compounds 2 and 5.

PPARα = biological target: T1, PPARα (Homo sapiens, UniProt Q07869); assay: PPARα/Gal4 transactivation system in RK13 cells (luciferase reporter); assay type: cell-based, rabbit; details: 24 hours
T1 construct: expressed in transfected cells; host or cells: RK13 cells
T1 sequence (Q07869 239-466 limits assumed): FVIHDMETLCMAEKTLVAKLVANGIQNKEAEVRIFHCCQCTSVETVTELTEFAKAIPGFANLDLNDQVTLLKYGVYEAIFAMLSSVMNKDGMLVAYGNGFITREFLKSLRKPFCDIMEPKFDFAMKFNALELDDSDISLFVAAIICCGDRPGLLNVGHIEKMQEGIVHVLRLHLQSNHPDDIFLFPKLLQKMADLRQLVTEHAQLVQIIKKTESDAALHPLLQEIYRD
Description: RK13 cells were incubated with the different compounds at concentrations of 10, 30 and 100 μM or 1, 10 and 100 μM for 24 hours. The results are expressed as the induction factor (luminescent signal relative to untreated cells) after the different treatments.
PPAR activation was tested in vitro in RK13 fibroblast cell lines by measuring the transcriptional activity of chimeras composed of the DNA binding domain of the yeast gal4 transcription factor and the ligand binding domain of the different PPARs. These latter results were then confirmed in cell lines according to the following protocols:
RK13 cells were from ECACC (Porton Down, UK) and were grown in DMEM medium supplemented with 10% (V/N) fetal calf serum, 100 U/ml penicillin (Gibco, Paisley, UK) and 2 mM L-glutamine (Gibco, Paisley, UK). The culture medium was changed every two days. Cells were kept at 37° C. in a humidified 95% air/5% CO2 atmosphere.
The plasmids pG5TkpGL3, pRL-CMV, pGal4-hPPRAα, pGal4-hPPRAγ and pGal4-φ have been described by Raspe, Madsen et al. (1999). The pGal4-mPPRAα and pGal4-hPPRAγ constructs were obtained by cloning into the pGal4-φ vector of PCR-amplified DNA fragments corresponding to the DEF domains of the human PPARα and PPRAγ nuclear receptors.
[…] At the end of the experiment, the cells were lysed (Gibco, Paisley, UK) and luciferase activity was determined with a Dual-Luciferase™ Reporter Assay System kit (Promega, Madison, Wis., USA) according to the supplier's instructions as previously described (Raspe, Madsen et al. 1999).

[1] = test system: Apo E2/E2 transgenic mice; assay: Effects on triglyceride and cholesterol metabolism in vivo
Description: Apo E2/E2 transgenic mice were kept on a 12-hour light/dark cycle at a constant temperature of 20±3° C. After a 1 week acclimation, the mice were weighed and divided into groups of 6 animals selected so that body weight would be uniformly distributed. The test compounds were suspended in carboxymethylcellulose and administered by intragastric gavage at the indicated doses, once a day for 7 or 8 days. Animals had access to food and water ad libitum. At the end of the experiment the animals were weighed and sacrificed under anesthesia. Blood was collected on EDTA. Plasma was prepared by centrifugation at 3000 rpm for 20 minutes. Liver samples were taken and stored frozen in liquid nitrogen for subsequent analysis.
Serum lipid concentrations (total cholesterol and free cholesterol, triglycerides and phospholipids) were determined by a colorimetric assay (Boehringer, Mannheim, Germany) according to the supplier's instructions. Serum concentrations of apolipoproteins AI, AII and CIII were determined as previously described (Raspe et al. J. Lipid Res. 40, 2099-2110, 1999, Asset G et al., Lipids, 34, 39-44, 1999).

Structure (SMILES): CC(C)(Oc1ccc(C(=O)/C=C/c2cc(C(C)(C)C)c(O)c(C(C)(C)C)c2)c(O)c1)C(=O)O [Compound 2, 1-[2-hydroxy-4-carboxydimethylmethyloxyphenyl]-3-[3.5-ditertbutyl-4-hydroxyphenyl]prop-2-en-1-one]
lag phase of conjugated diene formation (LDL; FIG. 1-1, copper alone 111 minutes): more than 480 minutes
rate of conjugated diene formation (LDL; FIG. 1-2, copper alone 2): not measurable because too low
maximum amount of conjugated dienes formed (LDL; FIG. 1-3, copper alone 348): 54.4 nmol per mg of LDL
decrease in conjugated diene formation (LDL; FIG. 1-3, versus copper alone): 84%

Induction factor (luminescent signal relative to untreated cells) (PPARα; 10 μM): 4
Induction factor (luminescent signal relative to untreated cells) (PPARα; 10 μM, listed as Cp4): 3.99
Induction factor (luminescent signal relative to untreated cells) (PPARα; 30 μM): 22
Induction factor (luminescent signal relative to untreated cells) (PPARα; 30 μM, listed as Cp4): 22.15
Induction factor (luminescent signal relative to untreated cells) (PPARα; 100 μM): 60
Induction factor (luminescent signal relative to untreated cells) (PPARα; 100 μM, listed as Cp4): 61.07
Structure (SMILES): CC(C)(Oc1ccc(/C=C/C(=O)c2ccccc2O)cc1)C(=O)O [Compound 4, 1-[2-hydroxyhenyl]-3-[4-carboxydimethylmethyloxyphenyl]pron-2-en-1-one]

Induction factor (luminescent signal relative to untreated cells) (PPARα; 10 μM): 36.48
Induction factor (luminescent signal relative to untreated cells) (PPARα; 30 μM): 50.37
Induction factor (luminescent signal relative to untreated cells) (PPARα; 100 μM, listed as Cp7): 37.84
Structure (SMILES): Cc1cc(/C=C/C(=O)c2ccc(Cl)cc2O)cc(C)c1OC(C)(C)C(=O)O [Compound 7, 1-[2-hydroxy-4-chlorophenyl]-3-[3,5-dimethyl-4-carboxydimethylmethyloxyphenyl]prop-2-en-1-one]
triglycerides in large sized lipoparticles (exclusion chromatography) ([1]; gavage 200 mg/kg for 7 days, FIG. 3-3): decreased
cholesterol in large sized lipoparticles (exclusion chromatography) ([1]; gavage 200 mg/kg for 7 days, FIG. 3-4): decreased

Induction factor (luminescent signal relative to untreated cells) (PPARα; 10 μM): 0.62
Induction factor (luminescent signal relative to untreated cells) (PPARα; 30 μM): 1.27
Induction factor (luminescent signal relative to untreated cells) (PPARα; 100 μM): 10
Induction factor (luminescent signal relative to untreated cells) (PPARα; 100 μM, listed as Cp8): 9.98
Structure (SMILES): CC(C)(Oc1ccc(C(=O)/C=C/c2cc(Br)c(O)c(Br)c2)c(O)c1)C(=O)O [Compound 8, 1-[2-hydroxy-4-carboxydimethylmethyloxyphenyl]-3-[3.5-dibromo-4-hydroxyphenyl]prop-2-en-1-one]

Induction factor (luminescent signal relative to untreated cells) (PPARα; 1 μM): 1.20
Induction factor (luminescent signal relative to untreated cells) (PPARα; 10 μM): 1.39
Induction factor (luminescent signal relative to untreated cells) (PPARα; 100 μM, listed as Cp11): 10.19
Structure (SMILES): Cc1cc(/C=C/C(=O)c2ccccc2O)cc(C)c1OC(C)(C)C(=O)O [Compound 11, 1-[2-hydroxyphenyl]-3-[3,5-dimethyl-4-carboxydimethylmethyloxyphenyl]prop-2-en-1-one]

Structure (SMILES): CC(C)(Oc1ccc(C(=O)/C=C/c2ccc(Cl)cc2)c(O)c1)C(=O)O [Compound 18, 1-[2-hydroxy-4-carboxydimethylmethyloxyphenyl]-3-[4-chlorophenyil] prop-2-en-1-one]
lag phase of conjugated diene formation (LDL; FIG. 1-4, copper alone 178 minutes): 241 min
rate of conjugated diene formation (LDL; FIG. 1-5, copper alone 1.6): 1.4 nmol/min/mg of LDL
maximum amount of conjugated dienes formed (LDL; FIG. 1-6, copper alone 353): 305 nmol per mg of LDL

Induction factor (luminescent signal relative to untreated cells) (PPARα; 1 μM): 13.48
Induction factor (luminescent signal relative to untreated cells) (PPARα; 10 μM): 21.03
Induction factor (luminescent signal relative to untreated cells) (PPARα; 100 μM): 7.01
Structure (SMILES): Cc1cc(/C=C/C(=O)c2ccc(Br)cc2O)cc(C)c1OC(C)(C)C(=O)O [Compound 25, 1-[2-hydroxy-4-bromophenyl]-3-[3,5-dimethyl-4-carboxydimethylmethyloxyphenyl]prop-2-en-1-one]

Induction factor (luminescent signal relative to untreated cells) (PPARα; 1 μM): 3.77
Induction factor (luminescent signal relative to untreated cells) (PPARα; 100 μM): 1.21
Structure (SMILES): COc1ccccc1C(=O)/C=C/c1cc(C)c(OC(C)(C)C(=O)O)c(C)c1 [Compound 31, 1-[2-methoxyphenyl]-3-[3,5-dimethyl-4-carboxydimethylmethyloxyphenyl]prop-2-en-1-one]

Induction factor (luminescent signal relative to untreated cells) (PPARα; 1 μM): 24.55
Induction factor (luminescent signal relative to untreated cells) (PPARα; 10 μM): 27
Induction factor (luminescent signal relative to untreated cells) (PPARα; 10 μM, listed as Cp37): 27.83
Induction factor (luminescent signal relative to untreated cells) (PPARα; 100 μM): 0.02
Structure (SMILES): COc1cc(Cl)ccc1C(=O)/C=C/c1cc(C)c(OC(C)(C)C(=O)O)c(C)c1 [Compound 37, 1-[2-methyloxy-4-chlorophenyl]-3-[3,5-dimethyl-4-carboxydimethylmethyloxyphenyl]prop-2-en-1-one]

Induction factor (luminescent signal relative to untreated cells) (PPARα; 1 μM): 14.70
Induction factor (luminescent signal relative to untreated cells) (PPARα; 10 μM): 22
Induction factor (luminescent signal relative to untreated cells) (PPARα; 10 μM, listed as Cp38): 22.22
Induction factor (luminescent signal relative to untreated cells) (PPARα; 100 μM): 0.311
Structure (SMILES): CCCCCCCc1ccc(C(=O)/C=C/c2cc(C)c(OC(C)(C)C(=O)OC(C)(C)C)c(C)c2)cc1 [Compound 38, 1-[4-heptylphenyl]-3-[3,5-dimethyl-4-tertbutyloxycarbonyldimethylmethyloxyphenyl]prop-2-en-1-one]

Induction factor (luminescent signal relative to untreated cells) (PPARα; 1 μM): 34.61
Induction factor (luminescent signal relative to untreated cells) (PPARα; 10 μM): 31
Induction factor (luminescent signal relative to untreated cells) (PPARα; 10 μM, listed as Cp41): 31.18
Induction factor (luminescent signal relative to untreated cells) (PPARα; 100 μM): 3.39
Structure (SMILES): Cc1cc(/C=C/C(=O)c2ccc(Br)cc2)cc(C)c1OC(C)(C)C(=O)O [Compound 41, 1-[4-bromophenyl]-3-[3,5-dimethyl-4-carboxydimethylmethyloxyphenyl]prop-2-en-1-one]
triglycerides in large sized lipoparticles (exclusion chromatography) ([1]; 50 mg/kg/day for 8 days, FIG. 3-11): decrease
cholesterol in large sized lipoparticles (exclusion chromatography) ([1]; 50 mg/kg/day for 8 days, FIG. 3-12): decrease
